Results published in PubChem BioAssay AID330 (DTP/NCI, 2004).
“And” between values parts separate entries of the source, which are not always exact repeats. Equal values may be shown once. Inconclusive results and toxic doses are left out.

Test system: P388 leukemia ip, CD2F1 mice, survival T/C
Test: NCI In Vivo Anticancer Drug Screen. Data for tumor model P388 Leukemia (intraperitoneal) in CD2F1 (CDF1) mice
Details: endpoint: median survival time, higher = longer survival
Outline: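 Mice carrying the transplanted tumor received test compound or vehicle. Survival was recorded in each group, and the value is the treated-group measurement divided by that of the vehicle-treated control group.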

[1] = dose: 50.0 mg/kg/injection, schedule: Q01DX005 (ip), vehicle: Klucel (hydroxypropylcellulose) (HPC)
[2] = dose: 100.0 mg/kg/injection, schedule: Q01DX005 (ip), vehicle: Klucel (hydroxypropylcellulose) (HPC)
[3] = dose: 25.0 mg/kg/injection, schedule: Q01DX009 (ip), vehicle: saline with Tween-80
[4] = dose: 50.0 mg/kg/injection, schedule: Q01DX009 (ip), vehicle: saline with Tween-80
[5] = dose: 100.0 mg/kg/injection, schedule: Q01DX009 (ip), vehicle: saline with Tween-80
[6] = dose: 60.0 mg/kg/injection, schedule: Q01DX005 (ip), vehicle: saline with Tween-80
[7] = dose: 120.0 mg/kg/injection, schedule: Q01DX005 (ip), vehicle: saline with Tween-80
[8] = dose: 50.0 mg/kg/injection, schedule: Q01DX005 (ip), vehicle: saline with Tween-80
[9] = dose: 100.0 mg/kg/injection, schedule: Q01DX005 (ip), vehicle: saline with Tween-80
[10] = dose: 200.0 mg/kg/injection, schedule: Q01DX005 (ip), vehicle: saline with Tween-80
[11] = dose: 50.0 mg/kg/injection, schedule: Q01DX009 (ip), vehicle: saline
[12] = dose: 100.0 mg/kg/injection, schedule: Q01DX009 (ip), vehicle: saline
[13] = dose: 12.5 mg/kg/injection, schedule: Q01DX009 (ip), vehicle: saline with Tween-80

OCC(F)(F)C(F)(F)C(F)(F)F
T/C (dose: 100.0 mg/kg/injection, schedule: Q04DX003 (ip), vehicle: saline): 104 % of control | T/C (dose: 200.0 mg/kg/injection, schedule: Q04DX003 (ip), vehicle: saline): 90 % of control | T/C (dose: 400.0 mg/kg/injection, schedule: Q04DX003 (ip), vehicle: saline): 90 % of control

c1ccc2c(c1)C1CC3N=NC1C23 (stereo unspecified)
T/C [1]: 105 % of control | T/C [2]: 107 % of control

CC[C@@H](C)[C@H]([C@H](CC(=O)N1CCC[C@@H]1[C@@H](OC)[C@H](C)C(=O)N[C@H](Cc1ccccc1)c1nccs1)OC)N(C)C(=O)[C@H](NC(=O)[C@@H](C(C)C)N(C)C)C(C)C
T/C (dose: 6.5 micrograms/kg/injection, schedule: Q01DX005 (ip), vehicle: saline + alcohol): 155 % of control | T/C (dose: 13.5 micrograms/kg/injection, schedule: Q01DX009 (ip), vehicle: saline + alcohol): 173 % of control

CN(C)CS/C(=N\C(O)C(Cl)(Cl)Cl)NC(O)C(Cl)(Cl)Cl (stereo unspecified)
T/C [1]: 97 % of control | T/C [2]: 99 % of control | T/C (dose: 200.0 mg/kg/injection, schedule: Q01DX005 (ip), vehicle: Klucel (hydroxypropylcellulose) (HPC)): 99 % of control

C/C(=N\N=P(c1ccccc1)(c1ccccc1)c1ccccc1)C(C)(C)C
T/C (dose: 6.25 mg/kg/injection, schedule: Q01DX009 (ip), vehicle: Klucel (hydroxypropylcellulose) (HPC)): 100 % of control | T/C (dose: 12.5 mg/kg/injection, schedule: Q01DX009 (ip), vehicle: Klucel (hydroxypropylcellulose) (HPC)): 95 % of control | T/C (dose: 25.0 mg/kg/injection, schedule: Q01DX009 (ip), vehicle: Klucel (hydroxypropylcellulose) (HPC)): 94 % of control

O=C(O)c1cnc2cc(Cl)ccc2n1
T/C [3]: 100 % of control | T/C [4]: 100 % of control | T/C [5]: 95 % of control

O=C1CCC2CN3CCc4c([nH]c5ccccc45)C3CC2C1 (stereo unspecified)
T/C [6]: 100 % of control | T/C [7]: 106 % of control

O=C(NN1C(=O)CS(=O)(=O)C1c1ccccc1F)c1ccncc1 (stereo unspecified)
T/C (dose: 6.25 mg/kg/injection, schedule: Q01DX005 (ip), vehicle: saline with Tween-80): 102 % of control | T/C (dose: 12.5 mg/kg/injection, schedule: Q01DX005 (ip), vehicle: saline with Tween-80): 98 % of control | T/C (dose: 25.0 mg/kg/injection, schedule: Q01DX005 (ip), vehicle: saline with Tween-80): 99 % of control | T/C [8]: 97 % of control | T/C [9]: 90 % of control | T/C [10]: 97 % of control

N/N=C1\c2ccccc2-c2cccc(N)c21
T/C [6]: 102 % of control | T/C [7]: 112 % of control | T/C (dose: 240.0 mg/kg/injection, schedule: Q01DX005 (ip), vehicle: saline with Tween-80): 99 % of control

CC(=NC(C)C)N1CCCCC1
T/C [11]: 101 % of control | T/C [12]: 101 % of control

COc1cccc2c1C(=O)c1c(O)c3c(c(O)c1C2=O)C[C@@](O)(C(=O)CO)C[C@@H]3OC1CC(N)C(OC)C(C)O1 (stereo partly specified)
T/C (dose: 0.39 mg/kg/injection, schedule: Q01DX009 (ip), vehicle: saline): 201 % of control | T/C (dose: 0.65 mg/kg/injection, schedule: Q01DX009 (ip), vehicle: saline): 201 % of control | T/C (dose: 1.08 mg/kg/injection, schedule: Q01DX009 (ip), vehicle: saline): 324 % of control | T/C (dose: 1.08 mg/kg/injection, schedule: Q04DX003 (ip), vehicle: saline): 190 % of control | T/C (dose: 1.8 mg/kg/injection, schedule: Q04DX003 (ip), vehicle: saline): 263 % of control | T/C (dose: 3.0 mg/kg/injection, schedule: Q04DX003 (ip), vehicle: saline): 257 % of control | T/C (dose: 3.13 mg/kg/injection, schedule: Q04DX003 (ip), vehicle: water): 172 % of control | T/C (dose: 5.0 mg/kg/injection, schedule: Q04DX003 (ip), vehicle: saline): 163 % of control and 172 % of control | T/C (dose: 12.5 mg/kg/injection, schedule: Q04DX003 (ip), vehicle: water): 90 % of control

CCCCCCCCCCC(O)Cn1ccnc1 (stereo unspecified)
T/C [13]: 96 % of control | T/C [3]: 100 % of control | T/C [4]: 95 % of control

COC(=S)c1ccc(C(=S)OC)cc1
T/C [4]: 99 % of control | T/C [5]: 105 % of control | T/C (dose: 200.0 mg/kg/injection, schedule: Q01DX009 (ip), vehicle: saline with Tween-80): 103 % of control

CCNc1nncs1
T/C (dose: 25.0 mg/kg/injection, schedule: Q01DX009 (ip), vehicle: saline): 113 % of control | T/C [12]: 161 % of control | T/C (dose: 125.0 mg/kg/injection, schedule: Q01DX009 (ip), vehicle: saline): 162 % of control

COc1ccc2c(c1OC)C(N1CCc3cc4c(cc3C1=O)OCO4)OC2=O (stereo unspecified)
T/C (dose: 12.5 mg/kg/injection, schedule: Q01DX001 (ip), vehicle: saline + alcohol): 89 % of control | T/C (dose: 25.0 mg/kg/injection, schedule: Q01DX001 (ip), vehicle: saline + alcohol): 87 % of control | T/C (dose: 50.0 mg/kg/injection, schedule: Q01DX001 (ip), vehicle: saline + alcohol): 87 % of control

FC(F)(F)c1ccc2[nH]c3c(c2c1)CCCC3
T/C (dose: 100.0 mg/kg/injection, schedule: Q01DX001 (ip), vehicle: saline with Tween-80): 102 % of control | T/C (dose: 200.0 mg/kg/injection, schedule: Q01DX001 (ip), vehicle: saline with Tween-80): 102 % of control | T/C (dose: 400.0 mg/kg/injection, schedule: Q01DX001 (ip), vehicle: saline with Tween-80): 103 % of control

COc1ccc(C(=O)C(Br)CS(=O)(=O)c2ccc(C)cc2)cc1 (stereo unspecified)
T/C (dose: 100.0 mg/kg/injection, schedule: Q04DX002 (ip), vehicle: saline): 100 % of control | T/C (dose: 200.0 mg/kg/injection, schedule: Q04DX002 (ip), vehicle: saline): 102 % of control | T/C (dose: 400.0 mg/kg/injection, schedule: Q04DX002 (ip), vehicle: saline): 108 % of control

CC(=O)c1ccc2c(=O)n3c4ccccc4nc3c3cccc1c23
T/C [4]: 118 % of control | T/C [5]: 104 % of control

CC(=O)c1cc(-c2ccccn2)c(=O)n2ccccc12
T/C [13]: 105 % of control | T/C [3]: 99 % of control | T/C [4]: 100 % of control and 87 % of control

Cc1cc(C)nc(NS(=O)(=O)c2ccc(NC(=S)Nc3ccccc3)cc2)n1
T/C [8]: 96 % of control | T/C [9]: 90 % of control | T/C [10]: 91 % of control

CCOC(=O)c1ccc(NC(=O)Nc2nc(C)cs2)cc1
T/C (dose: 12.5 mg/kg/injection, schedule: Q01DX009 (ip), vehicle: distilled water + Tween-80): 104 % of control and 106 % of control | T/C (dose: 25.0 mg/kg/injection, schedule: Q01DX009 (ip), vehicle: distilled water + Tween-80): 99 % of control and 107 % of control | T/C (dose: 50.0 mg/kg/injection, schedule: Q01DX009 (ip), vehicle: distilled water + Tween-80): 109 % of control and 111 % of control | T/C (dose: 100.0 mg/kg/injection, schedule: Q01DX009 (ip), vehicle: distilled water + Tween-80): 118 % of control

C[O][Sn]([O][Sn]([Cl])([c]1ccccc1)[c]1ccccc1)([c]1ccccc1)[c]1ccccc1
T/C (dose: 50.0 mg/kg/injection, schedule: Q04DX003 (ip), vehicle: saline): 177 % of control | T/C (dose: 100.0 mg/kg/injection, schedule: Q04DX003 (ip), vehicle: suspension in saline): 106 % of control

CCCCOC(=O)C1C(C(=O)OCCCC)C2(Cl)C(Cl)=C(Cl)C1(Cl)C2(Cl)Cl (stereo unspecified)
T/C (dose: 100.0 mg/kg/injection, schedule: Q01DX009 (ip), vehicle: Klucel (hydroxypropylcellulose) (HPC)): 97 % of control | T/C (dose: 200.0 mg/kg/injection, schedule: Q01DX009 (ip), vehicle: Klucel (hydroxypropylcellulose) (HPC)): 104 % of control | T/C (dose: 400.0 mg/kg/injection, schedule: Q01DX009 (ip), vehicle: Klucel (hydroxypropylcellulose) (HPC)): 111 % of control

COC1/C=C\OC2(C)Oc3c(C)c(O)c4c(O)c(c(/C=N/N(Cc5ccccc5)C56CC7CC(CC(C7)C5)C6)c(O)c4c3C2=O)NC(=O)/C(C)=C\C=C\C(C)C(O)C(C)C(O)C(C)C(OC(C)=O)C1C (stereo unspecified)
T/C [4]: 102 % of control | T/C [5]: 100 % of control

CCN(Cc1cccc(S(=O)(=O)O)c1)c1ccc(C(=C2C=CC(=[N+](CC)Cc3cccc(S(=O)(=O)O)c3)C=C2)c2ccc(S(=O)(=O)O)cc2)cc1
T/C (dose: 50.0 mg/kg/injection, schedule: Q01DX005 (ip), vehicle: saline): 100 % of control | T/C (dose: 100.0 mg/kg/injection, schedule: Q01DX005 (ip), vehicle: saline): 99 % of control | T/C (dose: 200.0 mg/kg/injection, schedule: Q01DX005 (ip), vehicle: saline): 94 % of control

CCOc1cc2c(NCCCN(CCO)CCO)ncnc2c(OCC)c1OCC
T/C [11]: 101 % of control | T/C [12]: 111 % of control | T/C (dose: 200.0 mg/kg/injection, schedule: Q01DX009 (ip), vehicle: saline): 101 % of control
